Earlier results on one compound are cited in patent US20090325155A1, “Aureobasin a synthetase” (priority 2005, published 2009).

Starred links: 1 amine or outer side, 2 acyl side, 3 side chain; linkers in the order of their positions; H or OH if unused. Non-standard residues stand in square brackets, D forms with d. Residues, ends and D or L forms follow the SMILES beside them. ξ: configuration not given here. NMeVal(β-OH) = CN[C@H](C(=O)O)C(C)(C)O; X1 = CCC(C)[C@@H](O[*:1])C(=O)[*:2]; NMeF = CN[C@@H](Cc1ccccc1)C(=O)O; Ile(3ξ) = CCC(C)[C@H](N)C(=O)O; NMeV = CN[C@H](C(=O)O)C(C)C

The subject of data set [1] is a number of fungi, including yeasts, such as Saccharomyces cerevisiae and Schizosaccharomyces pombe. As to conditions: low concentration toxic against a number of fungi.
The test system of data set [2] is Candida spp.
In data set [3] the test system is Cryptococcus neoformans.
The test system of data set [4] is Aspergillus spp. The conditions noted are these: third major human pathogen.

As for `CCC(C)[C@@H]1NC(=O)[C@@H]2CCCN2C(=O)[C@H](Cc2ccccc2)N(C)C(=O)[C@H](Cc2ccccc2)NC(=O)[C@H](C(C)C)N(C)C(=O)[C@@H](C(C)CC)OC(=O)[C@H](C(C)(C)O)N(C)C(=O)[C@H](CC(C)C)NC(=O)[C@H](C(C)C)N(C)C1=O` (stereo partly drawn) [AbA, Aureobasidin A] (cyclo(F[NMeF]P[Ile(3ξ)][NMeV]L[NMeVal(β-OH)][X1][NMeV])), in data set [1], the “concentration at which toxic” value is 0.1 to 0.5 µg/mL. Further, the “cidal to fungal pathogen” value in data set [2] and in data set [3] was “cidal” each time. For the same compound, in data set [4], the “toxicity to fungal pathogen” value is “not toxic”.
